Results from patent publication EP0054589B1, “Organic phosphoric acid ester derivatives, a process for preparing the same and insecticidal, miticidal or nematocidal compositions containing the same” (priority 1980, dated 1982).
Like-named read-outs stand apart in the source and are kept apart here.

Columns and labels:
Cabbage = assay: Phytotoxicity on various crops; format: in vivo; set-up: key: Symbol — indicates that no toxicity was observed; conditions: 500 ppm sprayed; checked visually after 10 days
Protocol: (§1) An emulsifiable concentrate prepared as described in Formulation Example 2 was diluted with water to a concentration of 500 ppm based on the effective ingredient and sprayed sufficiently using a spray-gun onto various test plants. The plants were kept in a green house. After 10 days from the application phytotoxicity was checked visually. The test was replicated 3 times for each compound.

Rice = assay: Phytotoxicity on various crops; format: in vivo; set-up: key: Symbol — indicates that no toxicity was observed; conditions: 500 ppm sprayed; checked visually after 10 days
Protocol: as §1

egg plant = assay: Phytotoxicity on various crops; format: in vivo; set-up: key: Symbol — indicates that no toxicity was observed; conditions: 500 ppm sprayed; checked visually after 10 days
Protocol: as §1

Cotton = assay: Phytotoxicity on various crops; format: in vivo; set-up: key: Symbol — indicates that no toxicity was observed; conditions: 500 ppm sprayed; checked visually after 10 days
Protocol: as §1

Green Pepper = assay: Phytotoxicity on various crops; format: in vivo; set-up: key: Symbol — indicates that no toxicity was observed; conditions: 500 ppm sprayed; checked visually after 10 days
Protocol: as §1

Kidney Bean = assay: Phytotoxicity on various crops; format: in vivo; set-up: key: Symbol — indicates that no toxicity was observed; conditions: 500 ppm sprayed; checked visually after 10 days
Protocol: as §1

Tea = assay: Phytotoxicity on various crops; format: in vivo; set-up: key: Symbol — indicates that no toxicity was observed; conditions: 500 ppm sprayed; checked visually after 10 days
Protocol: as §1

Cucumber = assay: Phytotoxicity on various crops; format: in vivo; set-up: key: Symbol — indicates that no toxicity was observed; conditions: 500 ppm sprayed; checked visually after 10 days
Protocol: as §1

Apple = assay: Phytotoxicity on various crops; format: in vivo; set-up: key: Symbol — indicates that no toxicity was observed; conditions: 500 ppm sprayed; checked visually after 10 days
Protocol: as §1

Beet = assay: Phytotoxicity on various crops; format: in vivo; set-up: key: Symbol — indicates that no toxicity was observed; conditions: 500 ppm sprayed; checked visually after 10 days
Protocol: as §1

Tomato = assay: Phytotoxicity on various crops; format: in vivo; set-up: key: Symbol — indicates that no toxicity was observed; conditions: 500 ppm sprayed; checked visually after 10 days
Protocol: as §1

smaller tea tortrix = assay: Insecticidal effect on smaller tea tortrix (apple leaf dip); format: in vivo; conditions: Adoxophyes orana, foliar, read-out: Percent Mortality
Protocol: Leaves of an apple tree were dipped into a dilute water suspension of a wettable powder prepared as described in Formulation Example 5. After drying in air, the leaves were charged in a 60 ml volume cup made of vinyl chloride resin, and […] 3rd-instar larvae of smaller tea tortrix were put in each cup. The cups were capped and kept at 25°C. After 72 hours, the number of the surviving insects and the dead insects were recorded to determine percent mortality. In each treatment, 3 cups and 30 insects were used in total.

diamond back moth = assay: Insecticidal effect on diamond-back moth (cabbage leaf dip); format: in vivo, Plutella xylostella; conditions: 100 ppm, after 72 hours, 25°C
Protocol: (§2) (A) An emulsifiable concentrate prepared as described in Formulation Example 1 was diluted with water to a predetermined concentration and leaves of a cabbage were dipped into the dilute emulsion for 10 seconds followed by drying in air, and charged in a 60 ml volume cup made of vinyl chloride resin. Then, thirty 3rd-instar larvae of diamond back moth were put in each cup, and the cups were kept at 25°C. After 72 hours, percent mortality was assessed and the test was replicated 3 times for each treatment.
as §2, with “(B) An” for “(A) An”, “Example 4” for “Example 1”

tobacco cutworm [1] = assay: Long-lasting insecticidal effect on tobacco cutworm (sprayed cabbage plantlet); format: in vivo, Prodenia litura; conditions: Table 6, concentration 500 (unit not given), mortality after 48 hours; for Percent Mortality After Application 3rd Day: leaves cut on 3rd day; for Percent Mortality After Application 5th Day: leaves cut on 5th day; for Percent Mortality After Application 7th Day: leaves cut on 7th day; for Percent Mortality After Application 10th Day: leaves cut on 10th day
Protocol: (§3) (A) An emulsifiable concentrate prepared as described in Formulation Example 2 was diluted with water to a predetermined concentration and sprayed onto a cabbage plantlet in a flower pot of 15 cm in diameter using a spray-gun sufficiently and the tests plants were placed in a green house. The leaves of the plants were cut off on the 3rd, 5th, 7th, 10th and 15th day and placed in a 60 ml volume cup and 3rd-instar larvae of tobacco cutworm were put in each cup. The cups were kept in an incubator (25°C). After 48 hours, percent mortality was assessed. The tests was replicated 3 times for each compound using 30 insects in each test.
as §3, with “(B) An” for “(A) An”, “Example 3” for “Example 2”, “and 1 5th” for “and 15th”

rice stem borer = assay: Insecticidal effect on rice stem borer, 3rd-instar larvae (rice seedling dip); format: in vivo, Chilo suppressalis; conditions: after 72 hours, 25°C
Protocol: (§4) (A) A wettable powder prepared as described in Formulation Example 5 was diluted with water to a predetermined concentration. Rice seedlings were dipped into the dilute solution and placed in a 60 ml volume cup made of vinyl chloride resin, and 10 3rd-instar larvae of rice stem borer were put in each cup. The cups were capped and maintained at 25°C.
as §4, with “(B) A” for “(A) A”, “Example 7” for “Example 5”

tobacco cutworm [2] = assay: Insecticidal effect on tobacco cutworm (cabbage leaf dip); format: in vivo, Prodenia litura; conditions: after 48 hours, 25°C
Protocol: (§5) (A) An emulsifiable concentrate prepared as described in Formulation Example 1 was diluted with water to a predetermined concentration and then cabbage leaves were dipped into the dilute solution and dried in air and placed in a 60 ml volume cup made of vinyl chloride resin. 3rd-instar larvae of tobacco cutworm were put in each cup and maintained at 25°C. After 48 hours, percent mortality was assessed. The test was replicated 3 times for each compound using 30 insects in each test.
as §5, with “(B)” for “(A)”, “3” for “1”

apple leaf miner = assay: Insecticidal effect on apple leaf miner (sprayed apple seedling); format: in vivo, Lithocolletis ringoniella; conditions: Phyllonorycter ringoniella, 336 h, 500 ppm, fourteen days after spraying
Protocol: (§6) (A) A dilute water suspension of a wettable powder prepared as described in Formulation Example 5 was sufficiently sprayed using a spray-gun on a seedling of an apple tree planted in a bisque flower pot to which plant larvae of apple leaf miner just after hatching were parasitic. Thereafter the pots were placed in a green house. Fourteen days after the spraying, bores made by larvae were broken and percent mortality was assessed for all the leaves of each seedling. Three pots were used for each treatment.
as §6, with “(B)” for “(A)”, “7” for “5”

[3] = Table 9, 100 ppm, after 72 hours, 25°C, wettable powder as Formulation Example 5
[4] = Table 8, emulsifiable concentrate as Formulation Example 4
[5] = Table 1, 100 ppm, wettable powder as Formulation Example 5
[6] = Table 1, 500 ppm, wettable powder as Formulation Example 5
[7] = Table 2, 100 ppm, wettable powder as Formulation Example 7
[8] = Table 3, 500 ppm, emulsifiable concentrate as Formulation Example 1
[9] = Table 4, 100 ppm, emulsifiable concentrate as Formulation Example 3

SMILES | Phytotoxicity: Cabbage (Cabbage) | Phytotoxicity: Rice (Rice) | Phytotoxicity: Egg Plant (egg plant) | Phytotoxicity: Cotton (Cotton) | Phytotoxicity: Green Pepper (Green Pepper) | Phytotoxicity: Kidney Bean (Kidney Bean) | Phytotoxicity: Tea (Tea) | Phytotoxicity: Cucumber (Cucumber) | Phytotoxicity: Apple (Apple) | Phytotoxicity: Beet (Beet) | Phytotoxicity: Tomato (Tomato) | mortality at 100 ppm (smaller tea tortrix; [3]) [%] | Percent Mortality (%) (diamond back moth; [4]) | Percent Mortality After Application 3rd Day (tobacco cutworm [1]) [%] | Percent Mortality After Application 5th Day (tobacco cutworm [1]) [%] | Percent Mortality After Application 7th Day (tobacco cutworm [1]) [%] | Percent Mortality After Application 10th Day (tobacco cutworm [1]) [%] | Percent Mortality (%) (rice stem borer; [6]) | Percent Mortality (%) (rice stem borer; [7]) | Percent Mortality (%) (tobacco cutworm [2]; [9]) | further results
CCCSP(=O)(OCC)Oc1cccc2c1C(C)=CC(C)(C)O2 (stereo not drawn) [Compound No. 22] | — | — | — | — | — | — | — | — | — | — | — | 100 | 100 | 100 | 100 | 73.3 | 53.3 | 100 | 100 | 100 | Percent Mortality (%) (diamond back moth; Table 7, emulsifiable concentrate as Formulation Example 1): 100%; Percent Mortality After Application Immediately after Application (tobacco cutworm [1]): 100%; Percent Mortality (%) (rice stem borer; [5]): 100%; Percent Mortality (%) (tobacco cutworm [2]; [8]): 100%
CCOP(=O)(Oc1ccc2c(c1)OC(CC)=C(C)C2(CC)CC)SC(C)CC (stereo not drawn) [Compound No. 19] | — | — | — | — | — | — | — | — | — | — | — |  |  |  |  |  |  | 100 | 100 | 100 | mortality at 500 ppm (apple leaf miner; Table 10, wettable powder as Formulation Example 5, read-out: Percent Morality (%)): 100%; Percent Mortality (%) (rice stem borer; [5]): 100%
CCOP(=O)(Oc1ccc2c(c1)OC(C)=CC2(C)C)SC(C)C (stereo not drawn) [compound 14] | — | — | — | — | — | — | — | — | — | — | — | 83.3 |  |  |  |  |  | 100 |  |  | Percent Mortality (%) (tobacco cutworm [2]; [8]): 100%
CCOP(=S)(OCC)Oc1cc(C)nc(C(C)C)n1 [Diazinon, 0,0-diethyl (O-2-isopropyl-6-methyl-pyrimidin-4-yl)phosphorothioate, reference compound] |  |  |  |  |  |  |  |  |  |  |  |  |  |  |  |  |  |  |  |  | mortality at 100 ppm (smaller tea tortrix; 72 h): 43.3%
CCC(C)SP(=O)(OC)Oc1ccc2c(c1)OC(C)(C)C=C2C (stereo not drawn) [Compound No. 24] | — | — | — | — | — | — | — | — | — | — | — |  | 100 | 100 | 93.3 | 60.0 | 23.3 |  | 100 | 100 | Percent Mortality After Application Immediately after Application (tobacco cutworm [1]): 100%; mortality at 500 ppm (apple leaf miner; Table 11, wettable powder as Formulation Example 7, read-out: Percent Mortality (%)): 100%
